Here are results for nine molecules from PubChem BioAssay (NCI).

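Each compound was tested at five concentrations against cells in 96-well plates for 48 hours. TGI is the concentration that stops growth completely.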 Bounds are passed on as bounds.

Some test systems named below: NCI-H460 lung; KM12 colon; LOX IMVI melanoma; NCI-H23 lung; SF-268 CNS; SF-295 CNS; IGROV1 ovarian; SK-OV-3 ovarian; HS 578T breast; HOP-62 NSCLC; UACC-62 melanoma; OVCAR-4 ovarian; HL-60(TB) leukemia; MDA-N; A549 NSCLC; RPMI-8226 leukemia.
Assay in all cases: NCI anticancer screen, dose series, 48 h

As for `CCOC(=O)c1nc2ccccc2nc1NCc1cc(OC)c(OC)c(OC)c1`, the TGI in the experiment on NCI-H460 lung, in the experiment on KM12 colon, with LOX IMVI melanoma, with NCI-H23 lung, with SF-268 CNS and in the experiment on SF-295 CNS was over 100 µM each time. Further, the TGI with IGROV1 ovarian, with SK-OV-3 ovarian, with HS 578T breast, in the experiment with HOP-62 NSCLC, in the experiment on UACC-62 melanoma and in the experiment with OVCAR-4 ovarian was over 100 µM in each case. Moreover, the TGI in the experiment with HL-60(TB) leukemia is over 100 µM; in the experiment with MDA-N, 51.8 µM; in the experiment with A549 NSCLC, over 100 µM; in the experiment with RPMI-8226 leukemia, over 100 µM.

In the case of `O=c1c2nc3ccccc3c(=O)n2ncn1-c1ccccc1Cl`, the TGI with NCI-H460 lung, with KM12 colon, in the experiment with LOX IMVI melanoma, in the experiment on NCI-H23 lung, in the experiment on SF-268 CNS and in the experiment with SF-295 CNS was over 100 µM each time. For the same molecule, the TGI with IGROV1 ovarian, in the experiment on SK-OV-3 ovarian, with HS 578T breast, in the experiment with HOP-62 NSCLC, in the experiment with UACC-62 melanoma and with OVCAR-4 ovarian was over 100 µM throughout. For the same molecule, the TGI in the experiment on HL-60(TB) leukemia, in the experiment on MDA-N, in the experiment with A549 NSCLC and in the experiment on RPMI-8226 leukemia was over 100 µM in each case.

Take `O=C1NC(=S)N/C1=C\c1ccc(Br)s1`: the TGI in the experiment on NCI-H460 lung, in the experiment with KM12 colon, in the experiment with LOX IMVI melanoma, in the experiment with NCI-H23 lung, with SF-268 CNS and with SF-295 CNS was over 100 µM each time. For the same molecule, the TGI in the experiment with IGROV1 ovarian, in the experiment with SK-OV-3 ovarian, with HS 578T breast, in the experiment on HOP-62 NSCLC, with UACC-62 melanoma and with OVCAR-4 ovarian was over 100 µM each time. The TGI is over 100 µM in the experiment on HL-60(TB) leukemia, over 100 µM in the experiment with MDA-N and 81.3 µM in the experiment on RPMI-8226 leukemia.

Regarding `CCn1c(SCC(=O)NNC(=S)Nc2ccc([N+](=O)[O-])cc2)nc2ccccc2c1=O`, the TGI in the experiment on NCI-H460 lung, in the experiment on KM12 colon, in the experiment with LOX IMVI melanoma, with NCI-H23 lung, in the experiment with SF-268 CNS and in the experiment with SF-295 CNS was over 100 µM in each case. Moreover, the TGI in the experiment with IGROV1 ovarian, with SK-OV-3 ovarian, in the experiment on HS 578T breast, in the experiment with HOP-62 NSCLC, in the experiment with UACC-62 melanoma and with OVCAR-4 ovarian was over 100 µM throughout. The TGI in the experiment with HL-60(TB) leukemia, in the experiment with MDA-N, in the experiment with A549 NSCLC and in the experiment with RPMI-8226 leukemia was over 100 µM in each case.

`O=C1CSC(c2ccc([N+](=O)[O-])cc2)N1c1ccc(-n2c(-c3ccccc3)nc3ccccc3c2=O)cc1` (stereo not given): the TGI with NCI-H460 lung, in the experiment with KM12 colon, in the experiment on LOX IMVI melanoma, in the experiment on NCI-H23 lung, in the experiment on SF-268 CNS and in the experiment with SF-295 CNS was over 100 µM in each case. Besides, the TGI in the experiment on IGROV1 ovarian was over 100 µM; in the experiment with SK-OV-3 ovarian it was over 100 µM; in the experiment on HS 578T breast, over 100 µM; in the experiment with HOP-62 NSCLC, over 100 µM; in the experiment on UACC-62 melanoma it was over 100 µM; with OVCAR-4 ovarian, 95.7 µM. Also, the TGI with HL-60(TB) leukemia, with MDA-N, with A549 NSCLC and in the experiment with RPMI-8226 leukemia was over 100 µM each time.

With `Cc1nn(C(=O)c2ccc(Cl)cc2)c2c1C(c1ccccc1[N+](=O)[O-])SC(N)=N2` (stereo not given), the TGI in the experiment on NCI-H460 lung, in the experiment with KM12 colon, in the experiment with LOX IMVI melanoma, in the experiment with NCI-H23 lung, in the experiment on SF-268 CNS and in the experiment with SF-295 CNS was over 10 µM throughout. The TGI in the experiment with IGROV1 ovarian, with SK-OV-3 ovarian, in the experiment with HS 578T breast, in the experiment with HOP-62 NSCLC, in the experiment on UACC-62 melanoma and with OVCAR-4 ovarian was over 10 µM in each case. The TGI in the experiment on HL-60(TB) leukemia, in the experiment with MDA-N, in the experiment with A549 NSCLC and with RPMI-8226 leukemia was over 10 µM throughout.

Turning to `Cc1nn(C(=O)Cc2ccccc2)c2c1C(c1ccc(O)cc1O)SC(N)=N2` (stereo not given), the TGI in the experiment with NCI-H460 lung, with KM12 colon, in the experiment with LOX IMVI melanoma, in the experiment on NCI-H23 lung, in the experiment on SF-268 CNS and in the experiment on SF-295 CNS was over 100 µM each time. Further, the TGI in the experiment on IGROV1 ovarian, with SK-OV-3 ovarian, in the experiment on HS 578T breast, in the experiment on HOP-62 NSCLC, with UACC-62 melanoma and in the experiment with HL-60(TB) leukemia was over 100 µM each time. Besides, the TGI with MDA-N, with A549 NSCLC and with RPMI-8226 leukemia was over 100 µM each time.

Take `O=C(CCc1ccc(O)c(O)c1)NCCc1cc(O)cc(O)c1`: the TGI in the experiment on NCI-H460 lung, in the experiment with KM12 colon, with LOX IMVI melanoma, in the experiment on NCI-H23 lung, with SF-268 CNS and in the experiment with SF-295 CNS was over 100 µM each time. In addition, the TGI in the experiment on IGROV1 ovarian, in the experiment on SK-OV-3 ovarian, with HS 578T breast, in the experiment on HOP-62 NSCLC, with UACC-62 melanoma and in the experiment on HL-60(TB) leukemia was over 100 µM each time. Besides, the TGI with MDA-N was 48.1 µM; in the experiment with A549 NSCLC it was over 100 µM; with RPMI-8226 leukemia, over 100 µM.

As to `COc1ccc(CC(=O)N2CCC3(C)CC(=O)CC=C23)cc1OC` (stereo not given), the TGI in the experiment with KM12 colon, with LOX IMVI melanoma, with NCI-H23 lung, with SF-268 CNS, in the experiment on SF-295 CNS and with IGROV1 ovarian was over 100 µM each time. The TGI with SK-OV-3 ovarian, in the experiment with HS 578T breast, in the experiment on HOP-62 NSCLC, with UACC-62 melanoma, in the experiment with OVCAR-4 ovarian and with HL-60(TB) leukemia was over 100 µM in each case. For the same molecule, the TGI in the experiment on MDA-N, in the experiment on A549 NSCLC and in the experiment with RPMI-8226 leukemia was over 100 µM throughout.
